The term Ki denotes the dissociation constant of the complex between target and ligand, obtained from inhibition or displacement.

For the assay, the target named is Isoform Alpha-4-2 of Neuronal acetylcholine receptor subunit alpha-4 (Alpha-4-2)/Neuronal acetylcholine receptor subunit beta-2 (Rat, UniProt P09483+P12390). Nature of the assay: Adult male rat cerebral cortices (Pelfreeze Biological, Rogers, Ark.) were homogenized in 39 volumes of ice-cold 50 mM Tris buffer (pH 7.4 at 4° C.) containing 120 mM NaCl, 5 mM KCl, 2 mM CaCl2, and 1 mM MgCl2 and sedimented at 37,000 g for 10 min at 4° C. The supernatant was discarded, the pellet resuspended in the original volume of buffer, and the wash procedure repeated twice more. After the last centrifugation, the pellet was resuspended in 1/10 its original homogenization volume and stored at −80° C. until needed. […] Total and nonspecific bindings were determined in the presence of vehicle and 300 μM (−)-ni. The following applies: 25 °C.
Isoform Alpha-4-2 of Neuronal acetylcholine receptor subunit alpha-4 (Alpha-4-2)/Neuronal acetylcholine receptor subunit beta-2, sequence (P09483 as listed by the source): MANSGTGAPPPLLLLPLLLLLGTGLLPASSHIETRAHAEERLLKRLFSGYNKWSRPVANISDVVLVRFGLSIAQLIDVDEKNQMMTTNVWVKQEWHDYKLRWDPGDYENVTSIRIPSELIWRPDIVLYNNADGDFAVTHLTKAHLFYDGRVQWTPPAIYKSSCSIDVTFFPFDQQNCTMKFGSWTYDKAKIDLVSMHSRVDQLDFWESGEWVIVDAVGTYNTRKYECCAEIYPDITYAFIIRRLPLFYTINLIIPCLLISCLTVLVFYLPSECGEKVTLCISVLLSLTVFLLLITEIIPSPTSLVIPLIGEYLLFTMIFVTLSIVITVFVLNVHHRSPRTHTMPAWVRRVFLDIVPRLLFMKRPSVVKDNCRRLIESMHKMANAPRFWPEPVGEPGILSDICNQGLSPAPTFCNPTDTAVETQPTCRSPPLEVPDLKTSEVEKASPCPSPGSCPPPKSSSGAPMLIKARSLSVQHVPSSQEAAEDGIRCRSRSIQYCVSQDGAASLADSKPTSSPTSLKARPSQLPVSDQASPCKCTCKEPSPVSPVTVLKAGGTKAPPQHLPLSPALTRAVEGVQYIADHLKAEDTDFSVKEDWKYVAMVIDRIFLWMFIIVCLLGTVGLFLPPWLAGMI
Isoform Alpha-4-2 of Neuronal acetylcholine receptor subunit alpha-4 (Alpha-4-2)/Neuronal acetylcholine receptor subunit beta-2, sequence (P12390 whole entry, canonical isoform): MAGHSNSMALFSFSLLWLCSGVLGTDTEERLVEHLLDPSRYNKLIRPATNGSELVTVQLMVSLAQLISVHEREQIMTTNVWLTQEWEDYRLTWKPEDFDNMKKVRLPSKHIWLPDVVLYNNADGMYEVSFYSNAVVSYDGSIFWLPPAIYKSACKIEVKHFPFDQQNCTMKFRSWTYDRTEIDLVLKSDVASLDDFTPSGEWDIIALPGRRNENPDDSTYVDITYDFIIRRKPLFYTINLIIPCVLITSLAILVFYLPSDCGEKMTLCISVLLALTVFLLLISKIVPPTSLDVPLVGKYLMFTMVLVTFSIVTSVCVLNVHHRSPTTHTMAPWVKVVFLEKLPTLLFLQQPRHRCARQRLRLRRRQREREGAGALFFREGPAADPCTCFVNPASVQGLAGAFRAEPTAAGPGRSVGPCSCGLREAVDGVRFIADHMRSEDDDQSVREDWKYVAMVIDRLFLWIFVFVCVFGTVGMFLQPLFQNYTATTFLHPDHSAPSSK
Regarding `c1ncc(-c2cncc(C3CC4CCC3N4)c2)cn1` (stereo not drawn) [US9284322, Table 7, Compound 1], the Ki was 0.12 nM.

As for `Fc1ncc(C2CC3CCC2N3)cc1-c1cncnc1` (stereo not drawn) [US9284322, Table 7, Compound 2], the Ki came to 0.84 nM.

In the case of `Clc1ncc(C2CC3CCC2N3)cc1-c1cncnc1` (stereo not drawn) [US9284322, Table 7, Compound 3], the inhibition constant (Ki) is 0.32 nM.

Values taken from BindingDB's records for patent US9284322 (Research Triangle Institute, 2016).
